According to ChEMBL document CHEMBL1201862, “PubChem BioAssay data set” (2004):
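96-well plates; 48 h exposure; 5 concentrations. Endpoints by linear interpolation between flanking doses. Not reached: highest tested concentration assigned. At the GI50, growth is halved.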 The source made the active and inactive calls. Rule as the data show it: active = GI50 up to about 1.1 µM and inactive = higher.

Assays:
Assay in all cases: NCI-60 cell line screen, 48 h
SNB-19 = system: SNB-19
EKVX = system: EKVX
M19-MEL = system: M19-MEL
SNB-78 = system: SNB-78
IGROV-1 = system: IGROV-1
RPMI-8226 = system: RPMI-8226
OVCAR-4 = system: OVCAR-4
SNB-75 = system: SNB-75
RXF 393 = system: RXF 393
HL-60 = system: HL-60
LOX IMVI = system: LOX IMVI
SF-268 = system: SF-268
SK-OV-3 = system: SK-OV-3
OVCAR-8 = system: OVCAR-8
HCT-15 = system: HCT-15
Malme-3M = system: Malme-3M
CAKI-1 = system: CAKI-1
A498 = system: A498
SK-MEL-28 = system: SK-MEL-28
HT-29 = system: HT-29

Compound | GI50 (SNB-19) | GI50 (EKVX) | GI50 (M19-MEL) | GI50 (SNB-78) | GI50 (IGROV-1) | GI50 (RPMI-8226) | GI50 (OVCAR-4) | GI50 (SNB-75) | GI50 (RXF 393) | GI50 (HL-60) | GI50 (LOX IMVI) | GI50 (SF-268) | GI50 (SK-OV-3) | GI50 (OVCAR-8) | GI50 (HCT-15) | GI50 (Malme-3M) | GI50 (CAKI-1) | GI50 (A498) | GI50 (SK-MEL-28) | GI50 (HT-29)
Cc1c2cc[n+](Cc3ccc(I)cc3)cc2c(C)c2c1[nH]c1ccccc12 | 0.471 µM (active) | 1.19 µM (inactive) | 0.254 µM (active) | 0.731 µM (active) | 1.1 µM (active) | 0.518 µM (active) | 0.546 µM (active) | 0.0914 µM (active) | 0.893 µM (active) | 0.488 µM (active) | 2.16 µM (inactive) | 0.495 µM (active) | 3.84 µM (inactive) | 0.685 µM (active) | 7.8 µM | 0.582 µM (active) | 0.714 µM (active) | 0.697 µM (active) | 1.45 µM (inactive) | 0.857 µM (active)
CC(C)C1NC(=O)CC(c2ccccc2)N(N=O)C1c1ccccc1 (stereo not given) | > 100 µM (inactive) | > 100 µM (inactive) | > 100 µM (inactive) | > 100 µM (inactive) | > 100 µM (inactive) | 81.8 µM (inactive) | > 100 µM (inactive) | > 100 µM (inactive) | > 100 µM (inactive) | 74.5 µM (inactive) | > 100 µM (inactive) | > 100 µM (inactive) | > 61.1 µM (inactive) | > 100 µM (inactive) | > 100 µM | > 100 µM (inactive) | > 100 µM (inactive) | > 100 µM (inactive) | > 100 µM (inactive) | > 100 µM (inactive)
